Experimental data from ChEMBL document CHEMBL6127107, “Oleanolic acid derivatives against drug-resistant bacteria and fungi by multi-targets to avoid drug resistance” (Eur J Med Chem, 2024).
Converted amounts (≈) assume the structure as drawn.

Assays:
Candida albicans = assay: Antimicrobial activity against fluconazole-resistant Candida albicans; type: functional
Staphylococcus aureus [1] = assay: Antimicrobial activity against methicillin-resistant Staphylococcus aureus 011; type: functional
Staphylococcus aureus [2] = assay: Antimicrobial activity against Staphylococcus aureus 29; type: functional
Staphylococcus aureus [3] = assay: Antimicrobial activity against Staphylococcus aureus 31; type: functional
Staphylococcus aureus [4] = assay: Antimicrobial activity against Staphylococcus aureus 10; type: functional
Enterococcus faecalis = assay: Antimicrobial activity against vancomycin resistant Enterococcus faecalis ATCC 51299; type: functional
Escherichia coli = assay: Antimicrobial activity against Escherichia coli; type: functional
Staphylococcus aureus [5] = assay: Antimicrobial activity against methicillin-resistant Staphylococcus aureus 003; type: functional
Pseudomonas aeruginosa = assay: Antimicrobial activity against Pseudomonas aeruginosa; type: functional
[6] = Hemolytic activity against Mianyang red blood cells (unknown origin); type: toxicity, cell-based, RBC
[7] = Selectivity index, ratio of HC50 for hemolytic activity against Mianyang red blood cells (unknown origin) to MIC for antimicrobial activity against methicillin resistant Staphylococcus aureus 003; type: toxicity, cell-based, RBC; conditions: read-out: Selectivity Index

SMILES	MIC (Candida albicans) [µg/mL]	MIC (Staphylococcus aureus [1]) [µg/mL]	MIC (Staphylococcus aureus [2]) [µg/mL]	MIC (Staphylococcus aureus [3]) [µg/mL]	MIC (Staphylococcus aureus [4]) [µg/mL]	MIC (Enterococcus faecalis) [µg/mL]	MIC (Escherichia coli) [µg/mL]	MIC (Staphylococcus aureus [5]) [µg/mL]	MIC (Pseudomonas aeruginosa) [µg/mL]	HC50 [6] [µg/mL]	selectivity ratio [7]
CC(=O)O[C@H]1CC[C@]2(C)[C@H]3CC=C4[C@@H]5CC(C)(C)CC[C@]5(C(=O)N(C)C)CC[C@@]4(C)[C@]3(C)CC[C@H]2C1(C)C	> 64	> 64	> 64	> 64	> 64	> 64	> 64	> 64	> 64		
OC(Cn1cncn1)(Cn1cncn1)c1ccc(F)cc1F [FLUCONAZOLE]	> 128									> 256	
CC(=O)O[C@H]1CC[C@]2(C)[C@H]3CC=C4[C@@H]5CC(C)(C)CC[C@]5(C(=O)NCCc5ccccc5)CC[C@@]4(C)[C@]3(C)CC[C@H]2C1(C)C	> 64	> 64	> 64	> 64	> 64	> 64	> 64	> 64	> 64		
CC1(C)S[C@@H]2[C@H](NC(=O)[C@H](N)c3ccccc3)C(=O)N2[C@H]1C(=O)O [AMPICILLIN]		> 128	2 (≈ 5.72 µM)	2 (≈ 5.72 µM)	2 (≈ 5.72 µM)	2 (≈ 5.72 µM)		> 128		> 256	
CCCCCCC(=O)O[C@H]1CC[C@]2(C)[C@H]3CC=C4[C@@H]5CC(C)(C)CC[C@]5(C(=O)O)CC[C@@]4(C)[C@]3(C)CC[C@H]2C1(C)C	> 64	> 64	> 64	> 64	> 64	> 64	> 64	> 64	> 64		
CC1(C)CC[C@]2(C(=O)O)CC[C@]3(C)C(=CC[C@@H]4[C@@]5(C)CC[C@H](OCC(O)CCCN)C(C)(C)[C@@H]5CC[C@]43C)[C@@H]2C1 (stereo not given in full)	4 (≈ 7.17 µM)	2 (≈ 3.59 µM)	2 (≈ 3.59 µM)	8 (≈ 14.3 µM)	4 (≈ 7.17 µM)	8 (≈ 14.3 µM)	> 64	4 (≈ 7.17 µM)	> 64	32	8.01
CC1(C)CC[C@]2(C(=O)O)CC[C@]3(C)C(=CC[C@@H]4[C@@]5(C)CC[C@H](OC(=O)c6ccccc6C(=O)O)C(C)(C)[C@@H]5CC[C@]43C)[C@@H]2C1	8 (≈ 13.2 µM)	32 (≈ 52.9 µM)	32 (≈ 52.9 µM)	64 (≈ 106 µM)	16 (≈ 26.5 µM)	16 (≈ 26.5 µM)	> 64	32 (≈ 52.9 µM)	> 64	> 1020	> 32
CCCCCCCCC(=O)O[C@H]1CC[C@]2(C)[C@H]3CC=C4[C@@H]5CC(C)(C)CC[C@]5(C(=O)O)CC[C@@]4(C)[C@]3(C)CC[C@H]2C1(C)C	> 64	> 64	> 64	> 64	> 64	> 64	> 64	> 64	> 64		
CC(=O)O[C@H]1CC[C@]2(C)[C@H]3CC=C4[C@@H]5CC(C)(C)CC[C@]5(C(=O)NCCCCN)CC[C@@]4(C)[C@]3(C)CC[C@H]2C1(C)C	4 (≈ 7.03 µM)	2 (≈ 3.52 µM)	8 (≈ 14.1 µM)	8 (≈ 14.1 µM)	8 (≈ 14.1 µM)	4 (≈ 7.03 µM)	> 64	4 (≈ 7.03 µM)	> 64	65.8	16.5
CCCCCCCCCOC(=O)[C@]12CCC(C)(C)C[C@H]1C1=CC[C@@H]3[C@@]4(C)CC[C@H](O)C(C)(C)[C@@H]4CC[C@@]3(C)[C@]1(C)CC2	> 64	> 64	> 64	> 64	> 64	> 64	> 64	> 64	> 64		
CCNCC(O)CO[C@H]1CC[C@]2(C)[C@H]3CC=C4[C@@H]5CC(C)(C)CC[C@]5(C(=O)O)CC[C@@]4(C)[C@]3(C)CC[C@H]2C1(C)C (stereo not given in full)	> 64	> 64	> 64	> 64	> 64	> 64	> 64	> 64	> 64		
CCCOC(=O)[C@]12CCC(C)(C)C[C@H]1C1=CC[C@@H]3[C@@]4(C)CC[C@H](O)C(C)(C)[C@@H]4CC[C@@]3(C)[C@]1(C)CC2	> 64	> 64	> 64	> 64	> 64	> 64	> 64	> 64	> 64		
